Measured values as given in patent US10137185B2, “PAP peptide analogues” (THE NOTTINGHAM TRENT UNIVERSITY, priority 2014, dated 2018).

Tested on: PBMCs from HLA-A2 positive patients with prostate cancer and individuals with benign disease
Experiment: IFNγ ELISPOT of PBMCs from prostate cancer patients and individuals with benign disease after peptide re-stimulation
Format: cell-based, human
Protocol: FIG. 3. IFNγ response of peripheral blood mononuclear cells (PBMCs) isolated from patients with prostate cancer and individuals with benign disease after re-stimulation with PAP-115-123 epitope using an ELISPOT assay. Cryopreserved PBMCs from ten HLA-A2 positive prostate cancer patients and ten benign candidates were compared. The PBMCs were cultured in vitro with 5 μg of PAP-114-128 epitope for 7 days. The cells were then washed and rested overnight and 4×10^4 cells were added to each well of an ELISPOT plate. PAP-115-123 epitope peptide (1 μg) was added per well and cells cultured for 48 hours. The plates were then washed according to the manufacturer's protocol. PBMCs with no added peptide were used as control. Comparisons of means (±SEM) between groups (cells pulsed with PAP-115-123 or no peptide) are made using an unpaired t test.
FIG. 12. IFNγ responses generated by PBMCs isolated from 10 patients with prostate cancer and 10 individuals with benign disease after re-stimulation with the PAP-115-123 analogue epitope peptide, as determined using an ELISPOT assay. PBMCs were cultured in vitro with 5 μg of PAP-114-128 analogue epitope for 7 days. The cells were then washed and rested overnight, at which time and 4×10^4 cells were added to each well of an ELISPOT plate. PAP-115-123 analogue epitope peptide (1 μg) was added to each well and the cells were cultured for 48 hours. The plates were then washed according to the manufacturer's protocol. PBMCs cultured with no added peptide were used as the control. Comparisons of means (±SEM) between groups (PBMCs pulsed with PAP-115-123 analogue or no peptide) are made using an unpaired t test.
To determine the presence of circulating T cells specific for PAP-115-123 in humans, PBMCs from HLA-A2 positive patients with prostate cancer and individuals with benign disease were used. Cryopreserved PBMCs were thawed, washed and restimulated for 7 days with […] epitope peptide. The cells were then washed and rested overnight, at which time 4×10^4 cells were added to each well of an ELISPOT plate. PAP-115-123 epitope peptide (1 μg) was added to each well and the cells cultured for 48 hours. The plates were developed according to the manufacturer's instructions. PBMCs cultured with no peptide were used as controls. […] The number of IFNγ spots generated by PBMCs from one of the patients was as high as 220 (vs 60 spots for the control). The number of spots generated by PBMCs for the other 6 patients with prostate cancer ranged between 50 and 100 (vs 10-20 in controls). Although some of the PBMCs from individuals with benign disease generated 50-100 spots, the number of spots in the control wells was also high.
To determine the presence of circulating T cells specific for PAP-115-123 analogue peptide in humans, PBMCs from HLA-A2 positive patients with prostate cancer and individuals with benign disease were used. Cryopreserved PBMCs were thawed, washed and restimulated for 7 days with […] analogue epitope. The cells were then washed and rested overnight, at which time 4×10^4 cells were added to each well of an ELISPOT plate. 1 μg of PAP-115-123 analogue epitope was added to each well and cells were cultured for 48 hours. The plates were developed as per the manufacturer's instructions. PBMCs cultured with no peptide were used as control. […] The number of IFNγ spots in one of the patients was as high as 180 spots compared to control (54 spots). Similar response was also obtained when PBMCs were co-cultured with PAP-115-123 epitope (FIG. 3). The number of spots generated by PBMCs from the 6 patients with prostate cancer patients ranged between 50 and 100 (vs 10-20 in control wells). Although some of the samples from individuals with benign disease generated 50-100 spots, the number of spots in the control wells was also high.

In the case of SAMTNLAAL [PAP-115-123], the “number of spots, other 6 patients with prostate cancer” value (1 μg peptide, 4×10^4 cells per well, 10-20 in controls) is reported as 50-100 spots, the “number of spots, some PBMCs from individuals with benign disease” value (1 μg peptide, spots in control wells also high) is reported as 50-100 spots and the “peptide-specific IFNγ response in samples from individuals with benign disease” value (10 benign individuals, 1 μg peptide) is reported as “no PAP-115-123 specific IFNγ response and none”. For the same sequence, the “PBMC samples from patients with prostate cancer with peptide-specific IFNγ response” value (of 10 samples, 7 days re-stimulation with the 15-mer, then 1 μg peptide, 48 hours, vs no peptide) was 7 and the “number of IFNγ spots, highest patient” value (one prostate cancer patient, 1 μg peptide, 4×10^4 cells per well, 48 hours) was 220 spots.
